According to US20250375417A1, “OREXIN RECEPTOR 2 (OX2R) AGONIST FOR USE IN NARCOLEPSY TYPE 1 (NT1)” (TAKEDA PHARMACEUTICAL COMPANY LIMITED, priority 2024, published 2025):
“And” between values parts separate entries of the source, which are not always exact repeats. Equal values may be shown once.

Columns and labels:
[1] = tested on: patients with NT1; experiment: Ambulatory blood pressure monitoring (ABPM), nocturnal BP dip, Phase 2 NT1 trial; assay type: in vivo, human; conditions: for DBP 24-h average, LS mean change at Week 6 from baseline / DBP 24-h pattern dip, LS mean change at Week 6 from baseline / DBP 24-h pattern highest, LS mean change at Week 6 from baseline / DBP 24-h pattern lowest, LS mean change at Week 6 from baseline / SBP 24-h average, LS mean change at Week 6 from baseline / SBP 24-h pattern dip, LS mean change at Week 6 from baseline / SBP 24-h pattern highest, LS mean change at Week 6 from baseline / SBP 24-h pattern lowest, LS mean change at Week 6 from baseline: baseline DBP non-dippers
Source text: Blunted nocturnal blood pressure (BP) dip, a potential risk factor for cardiovascular disease, may affect approximately ⅓ of patients with NT1. In the studies described herein, ambulatory blood pressure monitoring (ABPM) recordings can be obtained over an approximately 24.5-hour period and participants should not be confined to the clinical site during most of the 24.5-hour recording period. The ABPM device should be applied on-site. Because it is a requirement that the ABPM devices begin recording in the morning before the first morning dose (or similar time if performed during screening period), site staff may opt to confine participants in the evening before fitting participants with the ABPM monitoring device. If the participant is travelling to the site for the ABPM fitting, they may delay their first morning dose of study medication (to be taken no later than 10 AM) if needed. Participants who are confined the evening prior should also take their study drug right after the ABPM recording starts. For the ABPM during the screening period, the recording should begin between 8:00 AM±2 hours. Sites should ensure that all recordings meet the minimum threshold of acceptability. […] Participants will be trained on the use of the device with NT1.
Using functional data analysis, systolic BP (SBP) and diastolic BP (DBP) can be estimated in 24-hour patterns and key parameters, such as average, waveform amplitude, lowest and highest points, and dip amplitude (defined as [average−lowest]/average) can be extracted for each subject-visit. Non-dippers are defined as DBP 24-hour dip<13.44, as projected from a DBP fixed-window daytime to nighttime dip of <10%.
Blunted nocturnal blood pressure (BP) dip, a potential risk factor for cardiovascular disease, may affect approximately ⅓ of patients with narcolepsy type 1 (NT1). Ambulatory BP monitor (ABPM) data from 112 study patients with NT1 was measured. Using functional data analysis, systolic BP (SBP) and diastolic BP (DBP) were estimated in 24-hour patterns and key parameters were extracted, such as average, waveform amplitude, lowest and highest values, and dip amplitude (defined as [average-lowest]/average) at baseline and Week 6. […] Non-dippers were defined as having DBP 24-hour dip below a threshold corresponding to DBP daytime (6 am-10 pm) to nighttime ([…]) drop of <10%. Longitudinal changes in BP parameters were quantified across five randomized treatment arms (placebo, Compound A 0.5 mg twice 3 hours apart, 2 mg twice 3 hours apart, 2 mg then 5 mg 3 hours later, and 7 mg once-daily) at Week 6 post-baseline. Associations between BP and sleep parameters were assessed longitudinally by matching ABPM data from baseline and Week 6 with nocturnal polysomnography data from baseline and Week 8, respectively.

[2] = tested on: participants with NT2; experiment: Safety (TEAEs), Phase 2 NT2 trial; assay type: in vivo, human
Experimental: The principal mitigation strategy for risks related to BP increase, HR increase, insomnia, and bladder events included appropriate selection of the study population; use of the inpatient clinical research unit setting and home health visits, which permitted close monitoring and rapid institution of appropriate care as needed; appropriate specified monitoring procedures; and use of experienced staff trained in study procedures. To mitigate cardiovascular risks, BP and HR were measured frequently in this study; cardiovascular effects were evaluated by using BP and HR assessments and electrocardiographic (ECG) assessments. Stopping rules for individual participants and the overall study were established. In addition, because liver function test (LFT) elevation cases have been observed in another OX2R agonist with structural similarity, LFTs (ALT, AST, GGT, and total bilirubin) were closely monitored.
Liver function test (LFTs) (alanine aminotransferase [ALT], aspartate aminotransferase [AST], γ-glutamyl transferase [GGT], and total bilirubin) were closely monitored in this study. Stopping criteria for individual participants and the overall study, based on abnormal LFTs were established.
Eligible participants were age 18-70 years, with Epworth Sleepiness Scale (ESS) score>12 and no other current EDS-related medical conditions. Participants were randomized 1:1:1 to daily oral Compound A 2 mg twice 3 hours apart, 2 mg then 5 mg 3 hours later, or placebo. Study endpoints included change from baseline to Week 8 in mean Sleep Onset Latency on the Maintenance of Wakefulness Test (mean SOL-MWT; primary endpoint), ESS total score, and incidence of treatment-emergent adverse events (TEAEs). Participants who completed the placebo-controlled study could enroll in a ˜2-year Long Term Extension (LTE) study. LTE TEAE data up to Jan. 25, 2024 are reported.

For `CCS(=O)(=O)N[C@@H]1[C@H](Cc2cccc(-c3cc(F)cc(F)c3)c2F)N(C(=O)C(C)(C)O)CC1(F)F` [Compound A, N-{(2S,3R)-4,4-difluoro-1-(2-hydroxy-2-methylpropanoyl)-2-[(2,3′,5′-trifluoro[1,1′-biphenyl]-3-yl)methyl]pyrrolidin-3-yl}ethanesulfonamide], the “SBP or DBP dip, change from baseline at Week 6” value ([1]; baseline DBP dippers (n=73), either treatment arm) was “no significant changes”, the “DBP 24-h average, LS mean change at Week 6 from baseline” value (“DBP 24-h average, LS mean change” for short) ([1]; 0.5 mg/0.5 mg) was 0.17 and the “DBP 24-h pattern dip, LS mean change at Week 6 from baseline” value (“DBP 24-h pattern dip, LS mean change” below) ([1]; 0.5 mg/0.5 mg) was 2.7% and 2.67%. The “DBP 24-h pattern highest, LS mean change at Week 6 from baseline” value (shortened to “DBP 24-h pattern highest, LS mean change”) ([1]; 0.5 mg/0.5 mg) was 0.75, the “DBP 24-h pattern lowest, LS mean change at Week 6 from baseline” value (“DBP 24-h pattern lowest, LS mean change” for short) ([1]; 0.5 mg/0.5 mg) was −1.73 and the “SBP 24-h average, LS mean change at Week 6 from baseline” value (shortened to “SBP 24-h average, LS mean change”) ([1]; 0.5 mg/0.5 mg) was −1.42. For the same compound, the “SBP 24-h pattern dip, LS mean change at Week 6 from baseline” value (“SBP 24-h pattern dip, LS mean change” for short) ([1]; 0.5 mg/0.5 mg) was 1.20%, the “SBP 24-h pattern highest, LS mean change at Week 6 from baseline” value (“SBP 24-h pattern highest, LS mean change” below) ([1]; 0.5 mg/0.5 mg) was −0.87 and the “SBP 24-h pattern lowest, LS mean change at Week 6 from baseline” value (shortened to “SBP 24-h pattern lowest, LS mean change”) ([1]; 0.5 mg/0.5 mg) was −2.48. The “DBP 24-h average, LS mean change” value ([1]; 2 mg/2 mg) was −0.08, the “DBP 24-h pattern dip, LS mean change” value ([1]; 2 mg/2 mg) was 7.9% and 7.91% and the “DBP 24-h pattern highest, LS mean change” value ([1]; 2 mg/2 mg) was 1.62. For the same compound, the “DBP 24-h pattern lowest, LS mean change” value ([1]; 2 mg/2 mg) was −5.93, the “SBP 24-h average, LS mean change” value ([1]; 2 mg/2 mg) was 0.05 and the “SBP 24-h pattern dip, LS mean change” value ([1]; 2 mg/2 mg) was 5.36%. The “SBP 24-h pattern highest, LS mean change” value ([1]; 2 mg/2 mg) was 1.45, the “SBP 24-h pattern lowest, LS mean change” value ([1]; 2 mg/2 mg) was −6.55 and the “DBP 24-h average, LS mean change” value ([1]; 2 mg/5 mg) was −3.40. For the same compound, the “DBP 24-h pattern dip, LS mean change” value ([1]; 2 mg/5 mg) was 8.1% and 8.11%, the “DBP 24-h pattern highest, LS mean change” value ([1]; 2 mg/5 mg) was −1.18 and the “DBP 24-h pattern lowest, LS mean change” value ([1]; 2 mg/5 mg) was −8.71. For the same compound, the “SBP 24-h average, LS mean change” value ([1]; 2 mg/5 mg) was −4.13, the “SBP 24-h pattern dip, LS mean change” value ([1]; 2 mg/5 mg) was 4.11% and the “SBP 24-h pattern highest, LS mean change” value ([1]; 2 mg/5 mg) was −1.86. For the same compound, the “SBP 24-h pattern lowest, LS mean change” value ([1]; 2 mg/5 mg) was −8.80, the “DBP 24-h average, LS mean change” value ([1]; 7 mg QD) was −0.75 and the “DBP 24-h pattern dip, LS mean change” value ([1]; 7 mg QD) was 6.6% and 6.61%. The “DBP 24-h pattern highest, LS mean change” value ([1]; 7 mg QD) was 1.26, the “DBP 24-h pattern lowest, LS mean change” value ([1]; 7 mg QD) was −5.13 and the “SBP 24-h average, LS mean change” value ([1]; 7 mg QD) was 1.32. For the same compound, the “SBP 24-h pattern dip, LS mean change” value ([1]; 7 mg QD) was 3.28%, the “SBP 24-h pattern highest, LS mean change” value ([1]; 7 mg QD) was 3.31 and the “SBP 24-h pattern lowest, LS mean change” value ([1]; 7 mg QD) was −2.44. For the same compound, the “DBP 24-hour pattern dip, change from baseline at Week 6” value ([1]; whole population (n=111), any Compound A dose) was “no significant changes”, the “Occurrence of TEAEs” value ([2]; Compound A-treated participants (28/47), 8 weeks) was 59.6% and the “Serious TEAEs” value ([2]; parent and LTE study) was “no serious TEAEs”. For the same compound, the “Participants discontinued due to TEAEs” value ([2]; parent study (arm not stated)) was “Two”.
